# In the SangsterLogP compilation:
# Key:
# [1] = method code SF-HPLC, from DOI: 10.1016/j.ejps.2012.04.024, PMID: 22609526
# [2] = method code SF-HPLC, from DOI: 10.1002/jps.23218, PMID: 22644947; details: pH 7.0
# [3] = method code SF-HPLC, from DOI: 10.1002/jps.2600830510, PMID: 8071813
# [4] = method code SF-AS, from DOI: 10.1002/pauz.19770060602
# [5] = not given; remark: listed apart in the source
# [6] = not given; remark: listed apart in the source
# [7] = not given; remark: listed apart in the source
# [8] = method code SF-HPLC, from DOI: 10.1016/s0223-5234(02)01360-0, PMID: 12008054; details: pH 7.4
# [9] = not given; remark: listed apart in the source
# [10] = not given; remark: listed apart in the source
# [11] = method code SF-RC, from DOI: 10.1016/j.ejmech.2016.07.069, PMID: 27565554; details: pH 7.4
# [12] = not given; remark: listed apart in the source
# [13] = method code SF-RC, from DOI: 10.1002/jlcr.1930
# [14] = not given; remark: listed apart in the source
# [15] = not given; remark: listed apart in the source
# [16] = not given; remark: listed apart in the source
# [17] = method code SF-AS, from DOI: 10.1021/jm00392a004, PMID: 3625703; details: pH 6.9
# [18] = not given; remark: listed apart in the source
# [19] = not given; remark: listed apart in the source
# [20] = method code SF, from DOI: 10.1021/jm00123a006, PMID: 2918500; details: pH 7.4
# [21] = method code SF-RC, from Godoy, N.; Valle, L.; Mena, P.; Gil, M. (1989). Synthesis, labeling and biodistribution of 99mTc-labelled bromoimino diacetic acids. Nucleotecnica, 9(17)25-32.
# [22] = method code SF-HPLC, from DOI: 10.1016/j.ijpharm.2010.12.025, PMID: 21185925
# [23] = method code SF-HPLC, from Suo, X.; Li, M.; Wang, Y.; Zhu, S. (2010). Study on oil-water partition coefficient of hydroxycamptothecin and its absorption efficiency in rat small intestine. Chinese Traditional Patent Medicine, …; details: pH 7.4
# [24] = not given; remark: listed apart in the source
# [25] = not given; remark: listed apart in the source
# [26] = not given; remark: listed apart in the source
# [27] = method code SF-HPLC, from Liang, J.; Deng, J. (2011). Determination of n-octanol/wanter Partition Coefficient of Mangiferin. West China Journal of Pharmaceutical Sciences, 26(2)193-195.; details: pH 2.5
# [28] = method code SF, from DOI: 10.1016/j.bmcl.2012.08.112, PMID: 23010264; details: pH 7.4
# [29] = method code G-RC, from DOI: 10.1016/0300-483x(85)90031-9, PMID: 4049435
# [30] = not given; remark: listed apart in the source
# [31] = method code SF-RC, from DOI: 10.1111/j.2042-7158.1981.tb11724.x
# [32] = method code SF-HPLC, from DOI: 10.1211/0022357011778025, PMID: 11732751; details: pH 5.0
# [33] = method code SF, from DOI: 10.1111/j.1365-2958.1992.tb00853.x, PMID: 1640833
# [34] = not given; remark: listed apart in the source
# [35] = method code SF-AS, from DOI: 10.1016/0048-3575(88)90061-2
# [36] = method code SF, from DOI: 10.1021/bk-1995-0606.ch008
# [37] = method code SF, from DOI: 10.1007/bf02222191, PMID: 2473627
# [38] = method code SF-AS, from PMID: 4096735; details: pH 7.4
# [39] = not given; remark: listed apart in the source
# [40] = method code SF-HPLC, from DOI: 10.1002/jps.23034, PMID: 22213574; details: pH 7.4
# [41] = method code SF-RC, from DOI: 10.1016/j.bmcl.2015.05.048, PMID: 26073008; details: pH 7.4
# [42] = method code SF-HPLC, from PMID: 11745753; details: pH 11.0
structure (smiles),measurement,setting,value
Cc1onc(-c2ccccc2)c1C(=O)NC1C(=O)N2C1SC(C)(C)C2C(=O)O (stereo not drawn),logP,,2.34
O=c1c(O[C@@H]2OC[C@@H](O)[C@H](O)[C@H]2O)c(-c2ccc(O)c(O)c2)oc2cc(O)cc(O)c12,logP,[1],1.75
CCOC(=O)N(CCN(C(=O)OCC)C(=O)OCC)CCN(C(=O)OCC)C(=O)OCC,logD,[2],2.3
O=C(OCCN1CCOCC1)c1ccccc1Nc1c(Cl)cccc1Cl,logP,[3],2.72
O=C1CN=C(c2ccccc2)c2cc(Cl)ccc2N1CC1CC1,logP,[4],3.31
COC(=O)c1cc(OC)c2c(c1-c1c(CO)cc(OC)c3c1OCO3)OCO2,logP,[5],1.7
CC(C)CC(O)C(O)C(CC1CCCCC1)NC(=O)OC(C)(C)C (stereo not drawn),logP,[6],3.98
O=S(=O)(c1ccc(F)cc1)C1CCN(CCc2ccc(F)cc2F)CC1,logP,[7],2.47
COc1cc2nc(N3CCN(C(=O)C4CCCO4)CC3)nc(N)c2cc1OC (stereo not drawn),logD,[8],1.14
Cc1ccc(/C(=C\CN2CCCC2)c2ccccn2)cc1,logP,[9],3.87
Cc1cc2c(-c3ccccn3)c[nH]c2c(C(=O)Nc2ncccc2C)n1,logP,[10],4.7
COc1cc2c(cc1I)C/C(=C\c1ccc(N(C)C)cc1)C2=O,logD,[11],3.45
CN1CCN(CC(=O)N2c3ccccc3C(=O)Nc3cccnc32)CC1,logP,[12],0.1
COc1cc2c(cc1OS(N)(=O)=O)CC[C@@H]1[C@@H]2CC[C@]2(C)[C@@H](OS(N)(=O)=O)CC[C@@H]12,logP,[13],2.25
CN(C)c1ccc(-c2ccc3cc(OCC(O)CF)ccc3n2)cc1 (stereo not drawn),logP,[14],3.03
CNCCC=C1c2ccccc2CCc2ccccc21,logP,[15],4.4
C[C@H]1[C@H](N2CCS(=O)(=O)CC2)O[C@@H]2O[C@@]3(C)CC[C@H]4[C@H](C)CC[C@@H]1[C@@]24OO3,logP,[16],2.49
CCCCCCCCCC1(c2ccncc2)CCC(=O)NC1=O (stereo not drawn),logD,[17],4.64
CO[C@H]1C[C@]2(C)[C@@H](O)CC[C@H]2[C@@H]2CCc3cc(O)ccc3[C@H]21,logP,[18],2.72
CC(C)(C)NCC(COc1nsnc1N1CCOCC1)OC(=O)C1CCC1 (stereo not drawn),logP,[19],2.36
[N-]=[N+]=Nc1ccc(CCN2CCN(c3cccc(C(F)(F)F)c3)CC2)cc1I,logD,[20],3.33
CC(C)c1ccc(Br)c(C(C)C)c1NC(=O)CN(CC(=O)O)CC(=O)O,logP,[21],0.2
CCCc1nc(C[C@H](NC(=O)[C@@H]2CCC(=O)N2)C(=O)N2CCC[C@H]2C(N)=O)c[nH]1,logP,[22],-1.07
CC[C@@]1(O)C(=O)OCc2c1cc1n(c2=O)Cc2cc3cc(O)ccc3nc2-1,logD,[23],1.33
CC1N=C2C3CC(c4ccccc4)CCC3C=CN2C1C (stereo not drawn),logP,[24],3.9
C=CCN1CC[C@@]23CCCC[C@H]2[C@@H]1Cc1ccc(O)cc13,logP,[25],3.48
O=C(NN1C(=O)[C@@H]2[C@@H]3C=C[C@@H]([C@H]4C[C@@H]34)[C@@H]2C1=O)c1ccc(C(F)(F)F)cc1,logP,[26],2.36
O=c1c2cc(O)c(O)cc2oc2cc(O)c([C@@H]3O[C@H](CO)[C@@H](O)[C@H](O)[C@H]3O)c(O)c12,logD,[27],0.36
COCC(C1CC1)n1cc(Cl)nc(Nc2cc(C)c(OC)cc2C)c1=O (stereo not drawn),logD,[28],4.4
O=[N+]([O-])c1c2ccccc2c2ccc3cccc4ccc1c2c43,logP,[29],5.44
O=C(NN(C(=O)c1ccccc1)c1ccccc1)c1ccccc1,logP,[30],3.32
CCC(=O)O[C@H]1CC[C@H]2[C@@H]3CCC4=CC(=O)CC[C@]4(C)[C@H]3CC[C@]12C,logP,[31],3.72
CCN(CC)C(=O)C(C#N)=Cc1cc(OC(=O)C(C)(C)C)c(O)c([N+](=O)[O-])c1,logD,[32],2.24
C[C@]12CCC(=O)C[C@@H]1CC[C@@H]1[C@@H]2CC[C@]2(C)C(=O)CC[C@@H]12,logP,[33],3.6
CCN(CC)CCCN1c2ccccc2Sc2ccc(Cl)cc21,logP,[34],6.46
O=C(NC(=O)c1c(F)cccc1F)Nc1ccc(Oc2ncc(Cl)cc2Cl)cc1,logP,[35],3.27
O=C(Nc1ccc(F)cc1F)c1cccnc1Oc1cccc(C(F)(F)F)c1,logP,[36],4.49
CC(C)NCC(O)COc1ccccc1C1CCCCC1 (stereo not drawn),logP,[37],2.86
CCOC(=O)CCCCOc1ccc(-c2nc3c(N)nc(N)nc3nc2N)cc1,logD,[38],0.8
COc1cc2c(cc1O)CC[C@@H]1C2CC[C@]2(C)[C@@H](O)CC[C@@H]12 (stereo in doubt),logP,[39],2.86
O=S(=O)(c1ccc(C(F)(F)F)cc1)N1c2cc(F)c(F)cc2-c2[nH]ncc2C1C1CC1 (stereo not drawn),logD,[40],3.91
COc1ccc(/C=C/c2cc(=O)c3cc(I)ccc3o2)cc1OC,logD,[41],2.14
CCCCN1CCCCC1C(=O)Nc1c(C)cccc1C (stereo not drawn),logD,[42],3.35
